This note sets out measurements from ChEMBL document CHEMBL1201862, “PubChem BioAssay data set” (2004).

Structures are written as SMILES.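 Exposure lasted 48 hours, with cells grown in 96-well plates and compounds tested at five concentrations. The concentration for 50% growth inhibition is given as GI50.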 Calls of active or inactive are those of the source. Cut-off read from the data, not from the text of the source: active = GI50 up to about 1.1 µM and inactive = higher. Bounds are passed on as bounds.

Among the test systems are SK-MEL-5; CAKI-1; SK-MEL-2; CCRF-CEM; KM12; RXF 393; SN12C; UACC-62; BT-549; SW-620; SK-OV-3; UO-31; DU-145; SF-295; MDA-MB-231; MCF7; M14; Hs-578T.
Experiment in all cases: NCI-60 cell line screen, 48 h

With `CC(C)N1CCCOC(c2ccc([N+](=O)[O-])cc2)O1` (stereo unspecified), the GI50 in the assay with SK-MEL-5 is 58.6 µM (inactive); with CAKI-1, > 100 µM (inactive); in the assay on SK-MEL-2 it was > 100 µM (inactive); in the assay with CCRF-CEM, > 100 µM (inactive); in the assay on KM12, > 100 µM (inactive); with RXF 393 it was > 100 µM (inactive). Besides, the GI50 in the assay with SN12C, in the assay with UACC-62, in the assay on BT-549, with SW-620, with SK-OV-3 and in the assay on UO-31 was > 100 µM (inactive) in each case. For the same compound, the GI50 in the assay with DU-145 was > 100 µM (inactive); in the assay on SF-295 it was > 100 µM (inactive); in the assay with MDA-MB-231, > 100 µM (inactive); in the assay with MCF7, 80.9 µM (inactive); in the assay with M14, > 100 µM (inactive).
In the case of `c1cc(-c2ccsc2-c2ccsc2)cs1`, the GI50 is 71.1 µM (inactive) in the assay on SK-MEL-5; > 100 µM (inactive) with CAKI-1; 28.5 µM (inactive) with SK-MEL-2; 50.1 µM (inactive) in the assay with CCRF-CEM; 37.3 µM (inactive) with KM12; 27.4 µM (inactive) in the assay on RXF 393. Moreover, the GI50 in the assay with SN12C is > 86.9 µM (inactive); in the assay with UACC-62, > 88.9 µM (inactive); in the assay on BT-549, 81.1 µM (inactive); with SW-620 it was > 91.8 µM (inactive); in the assay on SK-OV-3, > 100 µM (inactive); with UO-31, > 90.6 µM (inactive). The GI50 in the assay with SF-295 is > 81.1 µM (inactive); in the assay on MDA-MB-231, > 100 µM (inactive); with MCF7, > 60.4 µM (inactive); in the assay on Hs-578T, 59.3 µM (inactive); in the assay with M14 it was > 100 µM (inactive).
In the case of `COC(=O)/C=C/COCC1C2CCC(=O)C21` (stereo unspecified), the GI50 was > 100 µM (inactive) in the assay on SK-MEL-5; 27.4 µM (inactive) in the assay with CAKI-1; > 100 µM (inactive) in the assay on SK-MEL-2; > 100 µM (inactive) in the assay on CCRF-CEM; > 100 µM (inactive) in the assay with KM12; > 100 µM (inactive) with RXF 393. For the same compound, the GI50 in the assay with SN12C, in the assay with UACC-62, with BT-549, with SW-620, in the assay on SK-OV-3 and in the assay on UO-31 was > 100 µM (inactive) in each case. The GI50 in the assay on DU-145, in the assay with SF-295, in the assay on MDA-MB-231, in the assay with MCF7 and with M14 was > 100 µM (inactive) in each case.
For `CCOC(=O)NC(NC(C)CC)(C(F)(F)F)C(F)(F)F` (stereo unspecified), the GI50 in the assay on SK-MEL-5, in the assay with CAKI-1, in the assay with SK-MEL-2, with CCRF-CEM, in the assay with KM12 and with RXF 393 was > 100 µM (inactive) throughout. Also, the GI50 in the assay on SN12C was > 100 µM (inactive); in the assay on UACC-62 it was > 100 µM (inactive); in the assay with SW-620, 42.3 µM (inactive); with UO-31 it was > 100 µM (inactive); with DU-145, > 100 µM (inactive); in the assay with SF-295, > 100 µM (inactive). Moreover, the GI50 in the assay with MDA-MB-231, in the assay on MCF7, with Hs-578T and in the assay with M14 was > 100 µM (inactive) in each case.
For `c1cnc2c(c1)Nc1cnncc1S2`, the GI50 with SK-MEL-5 was > 100 µM (inactive); in the assay on CAKI-1, 24.1 µM (inactive); in the assay with SK-MEL-2 it was > 100 µM (inactive); in the assay on CCRF-CEM, > 100 µM (inactive); in the assay on KM12, > 100 µM (inactive); in the assay on RXF 393, > 100 µM (inactive). In addition, the GI50 with SN12C is > 100 µM (inactive); in the assay with UACC-62 it was 77.6 µM (inactive); in the assay with SW-620, > 100 µM (inactive); in the assay on SK-OV-3 it was > 100 µM (inactive); in the assay on UO-31, 84.1 µM (inactive); in the assay on DU-145, > 100 µM (inactive). Moreover, the GI50 in the assay with SF-295, in the assay with MDA-MB-231, in the assay on MCF7, in the assay with Hs-578T and in the assay with M14 was > 100 µM (inactive) throughout.
`CC(C)CC(NC(=O)C(Cc1ccccc1)NC(=O)[C@H]1CC[C@H](NC(=O)C(Cc2ccc(OC(C)(C)C)cc2)NC(=O)OC(C)(C)C)C1)C(N)=O` (stereo partly specified): the GI50 in the assay with SK-MEL-5 is 1.07 µM (active); with CAKI-1, > 100 µM (inactive); with SK-MEL-2, 20.2 µM (inactive); in the assay with CCRF-CEM it was 14.6 µM (inactive); in the assay on KM12, 20.2 µM (inactive); in the assay with RXF 393, 67.8 µM (inactive). Also, the GI50 in the assay on SN12C is 17.7 µM (inactive); in the assay on UACC-62, 18.7 µM (inactive); in the assay on SW-620, 29.2 µM (inactive); in the assay on SK-OV-3, 44.7 µM (inactive); in the assay on UO-31, 47 µM (inactive); in the assay on SF-295, 28.8 µM (inactive). Moreover, the GI50 was 31.9 µM (inactive) in the assay on MDA-MB-231, 17.3 µM (inactive) in the assay with MCF7, 11.5 µM (inactive) in the assay with Hs-578T and 16.6 µM (inactive) in the assay with M14.
On to `O=[N+]([O-])c1ccc(N/N=C/CC(O)(C(F)(F)F)C(F)(F)F)c([N+](=O)[O-])c1`, for which the GI50 was 4.55 µM (inactive) in the assay on SK-MEL-5; 3.15 µM (inactive) with CAKI-1; 2.21 µM (inactive) in the assay on SK-MEL-2; 3.99 µM (inactive) in the assay on CCRF-CEM; 4.82 µM (inactive) with KM12; 5.35 µM (inactive) with RXF 393. Further, the GI50 was 3.41 µM (inactive) in the assay on SN12C; 4.06 µM (inactive) in the assay on UACC-62; 7.33 µM (inactive) with SW-620; 4.8 µM (inactive) in the assay with SK-OV-3; 3.06 µM (inactive) in the assay on UO-31; 3.1 µM (inactive) with DU-145. Besides, the GI50 was 3.58 µM (inactive) in the assay with SF-295; > 10 µM (inactive) in the assay on MDA-MB-231; 3.78 µM (inactive) in the assay with MCF7; 2.74 µM (inactive) in the assay with Hs-578T; > 10 µM (inactive) in the assay on M14.
As for `C(=C\c1ccccc1)/Cn1nc(-c2ccccc2)nc1-c1cnccn1`, the GI50 in the assay on SK-MEL-5 was 29.5 µM (inactive); in the assay on CCRF-CEM, > 100 µM (inactive); in the assay with KM12, > 10 µM (inactive); with RXF 393 it was > 100 µM (inactive); in the assay on SN12C it was > 100 µM (inactive); in the assay on UACC-62, > 100 µM (inactive). Further, the GI50 is > 100 µM (inactive) in the assay on BT-549; > 100 µM (inactive) in the assay on SW-620; 66.7 µM (inactive) in the assay on SK-OV-3; > 100 µM (inactive) with UO-31; > 100 µM (inactive) in the assay with DU-145; > 100 µM (inactive) in the assay with SF-295. For the same compound, the GI50 in the assay with MDA-MB-231, with MCF7 and in the assay on M14 was > 100 µM (inactive) each time.
In the case of `COC(=O)C1(Cc2ccccc2)Cc2c(C)ccc(C)c2C1=O` (stereo unspecified), the GI50 with SK-MEL-5 is 11.3 µM (inactive); with CCRF-CEM it was 34.8 µM (inactive); in the assay with KM12 it was 13.8 µM (inactive); in the assay with RXF 393, 21.8 µM (inactive); in the assay with SN12C, 47.8 µM (inactive); with UACC-62, 11.5 µM (inactive). The GI50 in the assay with SW-620 is 40.6 µM (inactive); in the assay on SK-OV-3, 35.3 µM (inactive); in the assay with UO-31, 10.8 µM (inactive); with DU-145, 49.2 µM (inactive); in the assay on SF-295, 31.8 µM (inactive); in the assay on MDA-MB-231, 15.7 µM (inactive). In addition, the GI50 with MCF7 was 28.7 µM (inactive); in the assay with Hs-578T it was 5.64 µM (inactive); in the assay with M14, 25.1 µM (inactive).
Regarding `CCN(CC)c1nnc(CCCCCCCCc2nnc(N(CC)CC)o2)o1`, the GI50 in the assay with SK-MEL-5, in the assay with CAKI-1, in the assay on SK-MEL-2, with CCRF-CEM, in the assay with KM12 and in the assay with RXF 393 was > 100 µM (inactive) in each case. Besides, the GI50 with SN12C, with BT-549, with SW-620, with SK-OV-3, with UO-31 and in the assay on DU-145 was > 100 µM (inactive) throughout. In addition, the GI50 in the assay with SF-295, with MDA-MB-231, in the assay with MCF7 and in the assay on M14 was > 100 µM (inactive) each time.
Regarding `O=C1C=CC(=O)c2c(NCC3CC3)ccc(NCC3CC3)c21`, the GI50 is 22.6 µM (inactive) in the assay on SK-MEL-5; 50.4 µM (inactive) in the assay on SK-MEL-2; 33.6 µM (inactive) in the assay on KM12; 23.2 µM (inactive) in the assay on SN12C; 18.3 µM (inactive) with UACC-62; 25.9 µM (inactive) in the assay on BT-549. For the same compound, the GI50 in the assay with SW-620 is 34.5 µM (inactive); in the assay on UO-31, 75.2 µM (inactive); in the assay on SF-295, 33.7 µM (inactive); in the assay with MDA-MB-231, 36.1 µM (inactive); in the assay on MCF7, 24.7 µM (inactive); in the assay with Hs-578T, 82.8 µM (inactive). Besides, in the assay on M14, the GI50 was 18.5 µM (inactive).
On to `CC(=O)/C(=C/NC(=S)N/N=C1\C(=O)Nc2ccccc21)C(=O)Nc1ccccc1C`, for which the GI50 with SK-MEL-5 was 65.3 µM (inactive); in the assay with CAKI-1 it was 47.4 µM (inactive); in the assay with SK-MEL-2, > 100 µM (inactive); in the assay with KM12 it was 98.9 µM (inactive); with RXF 393 it was 83.8 µM (inactive); with SN12C it was > 100 µM (inactive). Also, the GI50 with UACC-62 was > 100 µM (inactive); with BT-549 it was > 100 µM (inactive); with SW-620, > 100 µM (inactive); in the assay on SK-OV-3 it was > 100 µM (inactive); in the assay with UO-31 it was 44.3 µM (inactive); in the assay on DU-145, 47.1 µM (inactive). Besides, the GI50 in the assay on SF-295 is > 100 µM (inactive); in the assay on MDA-MB-231 it was 91.6 µM (inactive); in the assay on M14, > 100 µM (inactive).
